Assay results: patent US20240116998A1, “GLUCAGON-LIKE PEPTIDE-1 RECEPTOR ANTAGONISTS” (INDIANA UNIVERSITY RESEARCH AND TECHNOLOGY CORPORATION, priority 2021, published 2024)
Values after ≈ are worked out from the molar mass of the structure shown. Starred links: 1 amine or outer side, 2 acyl side, 3 side chain; linkers in the order of their positions; H or OH if unused. Non-standard residues stand in square brackets, D forms with d. Residues, ends and D or L forms follow the SMILES beside them. Groups on a side chain read outwards from the residue. *: point of attachment. γGlu = O=C(O)[C@H](CCC(=O)[*:2])N[*:1]; Palmitoyl = CCCCCCCCCCCCCCCC(=O)*; AEEA = NCCOCCOCC(=O)O; Aib = CC(C)(N)C(=O)O

Tests used:
C57B1/6 mice = experiment: Glucose tolerance test after subcutaneous GLP-1 antagonist (acute in vivo study); settings: s.c. antagonist, i.p. glucose 1.5 g/kg four hours later
Protocol: FIGS. 2A & 2B present data from a glucose tolerance test wherein mice are subcutaneously administered the GLP-1 antagonist followed four hours later by intraperitoneal administration of glucose (1.5 g glucose per kg body weight).
C57B1/6 mice were obtained from Jackson Laboratories. Mice were single- or group-housed on a 12:12 h light-dark cycle at 22° C. with free access to food and water. All studies were approved by and performed according to the guidelines of the Institutional Animal Care and Use Committee of the University of Cincinnati.
For the determination of glucose tolerance, mice were subjected to 6 h of fasting and injected intraperitoneally with glucose. Injections consisted of 1.5 g glucose per kg body weight (25% w/v D-glucose (Sigma) in 0.9% w/v saline). Tail blood glucose levels (mg dL-1) were measured using a hand-held glucometer (FreeStyle Freedom Lite) before 0 min and at 15, 30, 60, and 120 min after injection.
Mice received a subcutaneous injection of peptide (in PBS) either 1, 4, 8, 24, 48, 72, or 120 at varying doses before being challenged with an IP injection of dipeptidyl peptidase-IV-protected Ex-4 (0.65 nmol kg−1). A GTT was performed fifteen minutes after the GLP-1 injection. Tail blood glucose values were obtained as described above.

[1] = Solubility of peptides in buffer; type: physicochemical
human GLP-1 receptor = target: T1, human GLP-1 receptor (Homo sapiens, UniProt P43220); experiment: GLP-1 receptor-mediated cAMP induction, luciferase reporter gene assay (antagonism mode); type: cell-based; settings: Table 2; HEK 293 cells, human GLP-1R, vs 0.05 nM GLP-1; read-out: Bioactivity IC50
T1 construct: host or cells: HEK 293
T1 sequence (P43220 24-463): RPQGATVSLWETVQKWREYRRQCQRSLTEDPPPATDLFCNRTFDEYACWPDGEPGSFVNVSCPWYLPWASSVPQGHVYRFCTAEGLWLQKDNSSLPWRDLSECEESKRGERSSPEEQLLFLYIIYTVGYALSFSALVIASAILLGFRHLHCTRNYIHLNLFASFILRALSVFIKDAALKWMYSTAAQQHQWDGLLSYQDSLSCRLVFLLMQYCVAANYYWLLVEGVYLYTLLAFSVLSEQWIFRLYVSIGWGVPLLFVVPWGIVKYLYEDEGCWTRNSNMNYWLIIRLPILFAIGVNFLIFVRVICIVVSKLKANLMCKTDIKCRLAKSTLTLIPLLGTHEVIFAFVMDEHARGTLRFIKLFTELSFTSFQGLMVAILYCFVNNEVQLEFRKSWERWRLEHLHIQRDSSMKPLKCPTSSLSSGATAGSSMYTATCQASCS
Protocol: GLP-1 Receptor-Mediated cAMP Induction
The ability of peptides to stimulate or block cAMP induction at the GLP-1 receptor was examined by a luciferase-based reporter gene assay. Cotransfection of HEK 293 cells with the human GLP-1 receptor (Open Biosystems) and a cAMPinducible (cAMPresponsive element) luciferase gene constituted the cellular construct where receptor activation could be measured. Bioassays were performed by first serum depriving the cells for 16 h in 0.25% bovine growth serum (HyClone)-supplemented Dulbecco's modified Eagle's medium (Invitrogen) and then adding serial dilutions of the peptides over the appropriate concentration ranges in 96-well poly-D-lysine-coated plates (BD Biosciences). For antagonism assays, a constant concentration of GLP-1 (0.05 nM) was added to the assay plate after the diluted peptides. Incubation continued for 5 h at 37° C., 5% CO2 and was followed by the addition of an equivalent volume (100 μL) of LucLite luminescence substrate reagent (Perkin-Elmer). MicroBeta 1450 liquid scintillation counting (Perkin-Elmer) quantified the luminescence signal in counts per second (cps) after shaking the plate at 600 rpm for 3 min. Data was plotted using Origin software (OriginLab) and the effective concentration 50 (EC50) or inhibitory concentration 50 (IC50) was determined by sigmoidal fitting. Potency was determined by comparative analysis of relative EC50 or IC50 values. Each experiment was repeated at least three times with each sample assayed in duplicate.

Compound	solubility ([1]; pH 7.7)	IC50 (human GLP-1 receptor)	other results
CCCCCCCCCCCCCCCC(=O)N[C@@H](CCC(=O)NCCOCCOCC(=O)NCCCC[C@H](NC(=O)[C@H](CO)NC(=O)[C@@H]1CCCN1C(=O)[C@@H]1CCCN1C(=O)[C@@H]1CCCN1C(=O)[C@H](C)NC(=O)CNC(=O)[C@H](CO)NC(=O)[C@H](CO)NC(=O)[C@@H]1CCCN1C(=O)CNC(=O)CNC(=O)[C@H](CCCNC(=N)N)NC(=O)[C@@H](NC(=O)[C@H](CC(C)C)NC(=O)[C@H](Cc1c[nH]c2ccccc12)NC(=O)[C@H](CCC(=O)O)NC(=O)[C@@H](NC(=O)[C@H](Cc1ccccc1)NC(=O)[C@H](CCC(=O)O)NC(=O)[C@H](CCCNC(=N)N)NC(=O)[C@@H](NC(=O)[C@H](C)NC(=O)[C@H](CCC(N)=O)NC(=O)[C@H](CCC(=O)O)NC(=O)[C@H](CCC(=O)O)NC(=O)[C@H](CC(C)C)NC(=O)[C@H](Cc1ccc(O)cc1)NC(=O)[C@H](CCCNC(=N)N)NC(=O)[C@H](CO)NC(=O)[C@@H](NC(=O)[C@@H](N)CC(=O)O)C(C)C)C(C)C)[C@@H](C)CC)C(C)C)C(=O)O)C(=O)O [SEQ ID NO: 16] (H-DVSRYLEEQAVREFIEWLVRGGPSSGAPPPSK([AEEA-γGlu-Palmitoyl])-OH)	–	–	GLP-1 antagonist activity in glucose tolerance test (C57B1/6 mice; FIG. 2A): full antagonist; Potency relative to the GLP-1 antagonist Ex-9-40 in glucose tolerance test (C57B1/6 mice; FIGS. 2A & 2B): much higher potency
CCCCCCCCCCCCCCCC(=O)N[C@@H](CCC(=O)NCCOCCOCC(=O)NCCOCCOCC(=O)N[C@@H](CCC(=O)NCCCC[C@H](NC(=O)[C@H](CO)NC(=O)[C@@H]1CCCN1C(=O)[C@@H]1CCCN1C(=O)[C@@H]1CCCN1C(=O)[C@H](C)NC(=O)CNC(=O)[C@H](CO)NC(=O)[C@H](CO)NC(=O)[C@@H]1CCCN1C(=O)CNC(=O)CNC(=O)[C@H](CCCCN)NC(=O)[C@@H](NC(=O)[C@H](CC(C)C)NC(=O)[C@H](Cc1c[nH]c2ccccc12)NC(=O)[C@H](C)NC(=O)[C@@H](NC(=O)[C@H](Cc1ccccc1)NC(=O)[C@H](CCC(=O)O)NC(=O)[C@H](CCCNC(=N)N)NC(=O)[C@@H](NC(=O)[C@H](C)NC(=O)[C@H](CCC(N)=O)NC(=O)[C@H](CCC(=O)O)NC(=O)[C@H](CCC(=O)O)NC(=O)[C@H](CC(C)C)NC(=O)[C@H](Cc1ccc(O)cc1)NC(=O)[C@H](CO)NC(=O)[C@H](CO)NC(=O)[C@@H](NC(=O)[C@@H](N)CC(=O)O)C(C)C)C(C)C)[C@@H](C)CC)C(C)C)C(N)=O)C(=O)O)C(=O)O [SEQ ID NO: 57] (H-DVSSYLEEQAVREFIAWLVKGGPSSGAPPPSK([γGlu-AEEA-AEEA-γGlu-Palmitoyl])-NH2; N-terminus assumed)	> 25 mg/mL	9 nM	–
CCCCCCCCCCCCCCCC(=O)NCCOCCOCC(=O)NCCOCCOCC(=O)N[C@@H](CCC(=O)N[C@@H](CCC(=O)NCCCC[C@H](NC(=O)[C@H](CO)NC(=O)[C@@H]1CCCN1C(=O)[C@@H]1CCCN1C(=O)[C@@H]1CCCN1C(=O)[C@H](C)NC(=O)CNC(=O)[C@H](CO)NC(=O)[C@H](CO)NC(=O)[C@@H]1CCCN1C(=O)CNC(=O)CNC(=O)[C@H](CCCCN)NC(=O)[C@@H](NC(=O)[C@H](CC(C)C)NC(=O)[C@H](Cc1c[nH]c2ccccc12)NC(=O)[C@H](C)NC(=O)[C@@H](NC(=O)[C@H](Cc1ccccc1)NC(=O)[C@H](CCC(=O)O)NC(=O)[C@H](CCCNC(=N)N)NC(=O)[C@@H](NC(=O)[C@H](C)NC(=O)[C@H](CCC(N)=O)NC(=O)[C@H](CCC(=O)O)NC(=O)[C@H](CCC(=O)O)NC(=O)[C@H](CC(C)C)NC(=O)[C@H](Cc1ccc(O)cc1)NC(=O)[C@H](CO)NC(=O)[C@H](CO)NC(=O)[C@@H](NC(=O)[C@@H](N)CC(=O)O)C(C)C)C(C)C)[C@@H](C)CC)C(C)C)C(N)=O)C(=O)O)C(=O)O [SEQ ID NO: 61] (H-DVSSYLEEQAVREFIAWLVKGGPSSGAPPPSK([γGlu-γGlu-AEEA-AEEA-Palmitoyl])-NH2; N-terminus assumed)	> 25 mg/mL	6 nM	–
CCCCCCCCCCCCCCCC(=O)N[C@@H](CCC(=O)N[C@@H](CCC(=O)NCCOCCOCC(=O)NCCOCCOCC(=O)NCCCC[C@H](NC(=O)[C@H](CO)NC(=O)[C@@H]1CCCN1C(=O)[C@@H]1CCCN1C(=O)[C@@H]1CCCN1C(=O)[C@H](C)NC(=O)CNC(=O)[C@H](CO)NC(=O)[C@H](CO)NC(=O)[C@@H]1CCCN1C(=O)CNC(=O)CNC(=O)[C@H](CCCCN)NC(=O)[C@@H](NC(=O)[C@H](CC(C)C)NC(=O)[C@H](Cc1c[nH]c2ccccc12)NC(=O)[C@H](C)NC(=O)[C@@H](NC(=O)[C@H](Cc1ccccc1)NC(=O)[C@H](CCC(=O)O)NC(=O)[C@H](CCCNC(=N)N)NC(=O)[C@@H](NC(=O)[C@H](C)NC(=O)[C@H](CCC(N)=O)NC(=O)[C@H](CCC(=O)O)NC(=O)[C@H](CCC(=O)O)NC(=O)[C@H](CC(C)C)NC(=O)[C@H](Cc1ccc(O)cc1)NC(=O)[C@H](CO)NC(=O)[C@H](CO)NC(=O)[C@@H](NC(=O)[C@@H](N)CC(=O)O)C(C)C)C(C)C)[C@@H](C)CC)C(C)C)C(N)=O)C(=O)O)C(=O)O [SEQ ID NO: 58] (H-DVSSYLEEQAVREFIAWLVKGGPSSGAPPPSK([AEEA-AEEA-γGlu-γGlu-Palmitoyl])-NH2; N-terminus assumed)	–	11 nM	–
CCCCCCCCCCCCCCCC(=O)NCCCC[C@H](NC(=O)[C@H](CO)NC(=O)[C@@H]1CCCN1C(=O)[C@@H]1CCCN1C(=O)[C@@H]1CCCN1C(=O)[C@H](C)NC(=O)CNC(=O)[C@H](CO)NC(=O)[C@H](CO)NC(=O)[C@@H]1CCCN1C(=O)CNC(=O)CNC(=O)[C@H](CCCCN)NC(=O)[C@@H](NC(=O)[C@H](CC(C)C)NC(=O)[C@H](Cc1c[nH]c2ccccc12)NC(=O)[C@H](C)NC(=O)[C@@H](NC(=O)[C@H](Cc1ccccc1)NC(=O)[C@H](CCC(=O)O)NC(=O)[C@H](CCCNC(=N)N)NC(=O)C(C)(C)NC(=O)[C@H](C)NC(=O)[C@H](CCC(N)=O)NC(=O)[C@H](CCC(=O)O)NC(=O)[C@H](CCC(=O)O)NC(=O)[C@H](CC(C)C)NC(=O)[C@H](Cc1ccc(O)cc1)NC(=O)[C@H](CO)NC(=O)[C@H](CO)NC(=O)[C@@H](NC(=O)[C@@H](N)CC(=O)O)C(C)C)[C@@H](C)CC)C(C)C)C(N)=O [SEQ ID NO: 45] (H-DVSSYLEEQA[Aib]REFIAWLVKGGPSSGAPPPSK(Palmitoyl)-NH2; N-terminus assumed)	–	–	solubility ([1]; pH 7.4): 0.4 mg/mL (≈ 0.11 mM)
